Changes are numbered by the printed parent chain.
Tests used:
Format in all cases: cell-based
GluRδ2^Lc D782A = target: T1, GluRδ2^Lc D782A (Rattus norvegicus, UniProt Q63226, A654T/D782A); experiment: Two-electrode voltage-clamp recordings in Xenopus oocytes, GluRδ2^Lc D782A
T1 sequence (Q63226 24-1007 A654T/D782A): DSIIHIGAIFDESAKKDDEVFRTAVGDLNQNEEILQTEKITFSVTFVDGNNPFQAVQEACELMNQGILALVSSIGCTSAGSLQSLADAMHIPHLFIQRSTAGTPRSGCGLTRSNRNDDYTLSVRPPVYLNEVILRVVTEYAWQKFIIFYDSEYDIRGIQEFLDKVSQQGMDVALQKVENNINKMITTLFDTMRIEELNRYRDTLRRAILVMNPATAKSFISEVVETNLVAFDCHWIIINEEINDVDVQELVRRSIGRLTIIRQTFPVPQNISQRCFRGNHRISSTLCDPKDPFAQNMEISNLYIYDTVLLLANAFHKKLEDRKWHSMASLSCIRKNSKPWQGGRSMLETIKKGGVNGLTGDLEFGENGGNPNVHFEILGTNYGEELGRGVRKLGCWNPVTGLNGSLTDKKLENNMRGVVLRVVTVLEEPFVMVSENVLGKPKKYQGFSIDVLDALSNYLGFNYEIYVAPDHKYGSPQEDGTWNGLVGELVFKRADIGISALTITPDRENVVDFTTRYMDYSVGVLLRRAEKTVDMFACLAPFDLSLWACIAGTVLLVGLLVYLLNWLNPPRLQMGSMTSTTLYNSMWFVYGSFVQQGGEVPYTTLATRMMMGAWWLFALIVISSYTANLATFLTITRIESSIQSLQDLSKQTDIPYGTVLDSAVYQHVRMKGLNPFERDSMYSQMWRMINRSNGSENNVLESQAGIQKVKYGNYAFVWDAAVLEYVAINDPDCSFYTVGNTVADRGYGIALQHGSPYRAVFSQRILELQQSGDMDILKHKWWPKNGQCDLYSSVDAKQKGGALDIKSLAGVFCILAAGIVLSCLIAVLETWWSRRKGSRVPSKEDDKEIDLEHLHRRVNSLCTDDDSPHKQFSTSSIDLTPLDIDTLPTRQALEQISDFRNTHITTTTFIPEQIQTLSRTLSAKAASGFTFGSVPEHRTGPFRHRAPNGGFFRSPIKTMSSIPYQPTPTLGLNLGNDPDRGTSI

GluRδ2^Lc D535A = target: T2, GluRδ2^Lc D535A (Rattus norvegicus, UniProt Q63226, A654T/D535A); experiment: Two-electrode voltage-clamp recordings in Xenopus oocytes, GluRδ2^Lc D535A
T2 sequence (Q63226 24-1007 D535A/A654T): T1 sequence (Q63226 24-1007 A654T/D782A) with D512A, A759D

GluRδ2^Lc E531A+D782A = target: T3, GluRδ2^Lc E531A+D782A (Rattus norvegicus, UniProt Q63226, A654T/D782A/E531A); experiment: Two-electrode voltage-clamp recordings in Xenopus oocytes, GluRδ2^Lc E531A+D782A
T3 sequence (Q63226 24-1007 E531A/A654T/D782A): T1 sequence (Q63226 24-1007 A654T/D782A) with E508A

Ca^2+ potentiation (relative to baseline) (GluRδ2^Lc D782A; 3 mM Ca^2+, ± SEM) | Ca^2+ potentiation (relative to baseline) (GluRδ2^Lc D535A; 3 mM Ca^2+, ± SEM) | Ca^2+ potentiation (relative to baseline) (GluRδ2^Lc E531A+D782A; 3 mM Ca^2+, ± SEM) | D-serine + 0 mM Ca^2+ nH (GluRδ2^Lc D782A; Hill slope, 0 mM Ca^2+) | D-serine + 3 mM Ca^2+ nH (GluRδ2^Lc D782A; Hill slope, 3 mM Ca^2+) | D-serine + 0 mM Ca^2+ nH (GluRδ2^Lc D535A; Hill slope, 0 mM Ca^2+) | D-serine + 3 mM Ca^2+ nH (GluRδ2^Lc D535A; Hill slope, 3 mM Ca^2+) | D-serine + 0 mM Ca^2+ nH (GluRδ2^Lc E531A+D782A; Hill slope, 0 mM Ca^2+) | D-serine + 3 mM Ca^2+ nH (GluRδ2^Lc E531A+D782A; Hill slope, 3 mM Ca^2+) | Structure (SMILES)
0.8 ± 0.02 fold | 1.0 ± 0.01 fold | 0.9 ± 0.04 fold | – | – | – | – | – | – | [Ca+2] [Ca^2+, calcium]
– | – | – | 1.0 | 1.1 | 2.3 | 2.2 | 2.3 | 2.4 | N[C@H](CO)C(=O)O [D-serine]

From paper PMC2806602 (The Journal of neuroscience : the official journal of the …, 2009)
